Results reported in ChEMBL document CHEMBL3046649, “Fungitoxic and Phytotoxic Activities of Cinnamic Acid Esters and Amides” (2000).

Legend:
[1] = system: Brassica rapa subsp. chinensis; assay: whole plant or invertebrate; format: functional; conditions: 72 h, read-out: GI
Description: Phytotoxicity against Brassica rapa subsp. chinensis assessed as growth inhibition of hypocotyl at 100 ppm treated to seeds after 3 days

[2] = system: Brassica rapa subsp. chinensis; assay: whole plant or invertebrate; format: functional; conditions: 72 h, read-out: GI; remark: listed apart in the source
Description: Phytotoxicity against Brassica rapa subsp. chinensis assessed as growth inhibition of radicle at 100 ppm treated to seeds after 3 days

[3] = system: Pythium; assay: microbe, parasite or virus in culture; format: functional; conditions: read-out: GI
Description: Fungitoxic activity against Pythium sp. assessed as mycelial growth inhibition at 100 ppm after 4 to 5 days by agar dilution method

[4] = system: Athelia rolfsii; assay: microbe, parasite or virus in culture; format: functional; conditions: Agroathelia rolfsii, read-out: GI
Description: Fungitoxic activity against Athelia rolfsii assessed as mycelial growth inhibition at 100 ppm after 4 to 5 days by agar dilution method

[5] = system: Athelia rolfsii; assay: Fungitoxic activity against Athelia rolfsii assessed as mycelial growth inhibition at 10 ppm after 4 to 5 days by agar dilution method; format: functional; conditions: Agroathelia rolfsii; read-out: GI
[6] = system: Pythium; assay: Fungitoxic activity against Pythium sp. assessed as mycelial growth inhibition at 10 ppm after 4 to 5 days by agar dilution method; conditions: read-out: GI

| SMILES | inhibition of growth at 100 ppm [1] | inhibition of growth at 100 ppm [2] | inhibition of growth at 100 ppm [3] | inhibition of growth at 100 ppm [4] | inhibition of growth at 10 ppm [5] | inhibition of growth at 10 ppm [6] |
| --- | --- | --- | --- | --- | --- | --- |
| COC(=O)/C=C/c1ccc(C(C)C)cc1 | 38% | 21% | 82% | 97% | 35% | 7% |
| CC(C)c1ccc(/C=C/C(=O)OCCOc2ccccc2)cc1 | 32% | 0% | 46% | 64% | 8% | 3% |
| CC(C)=CCCC(C)CCOC(=O)/C=C/c1ccc(Cl)cc1 (stereo unspecified) [3,7-DIMETHYLOCT-6-ENYL 3-(4-CHLOROPHENYL)ACRYLATE] | 26% | 15% | 64% | 83% | 19% | 8% |
| CC(C)=CCCC(C)CCOC(=O)/C=C/c1ccc(C(C)C)cc1 (stereo unspecified) [3,7-DIMETHYLOCT-6-ENYL 3-(4-ISOPROPYLPHENYL)ACRYLATE] | 39% | 0% | 69% | 87% | 9% | 12% |
| CC(C)CNC(=O)/C=C/c1ccc(Cl)cc1 [3-(4-CHLOROPHENYL)-N-ISOBUTYLACRYLAMIDE] | 43% | 69% | 73% | 89% | 33% | 50% |
| CC(C)NC(=O)/C=C/c1ccc(Cl)cc1 [3-(4-CHLOROPHENYL)-N-ISOPROPYLACRYLAMIDE] | 26% | 57% | 45% | 94% | 66% | 20% |
| CCCNC(=O)/C=C/c1ccc(Cl)cc1 [3-(4-CHLOROPHENYL)-N-PROPYLACRYLAMIDE] | 43% | 64% | 88% | 97% | 32% | 30% |
| C=CCc1ccc(OC(=O)/C=C/c2ccc(Cl)cc2Cl)c(OC)c1 [4-ALLYL-2-METHOXYPHENYL 3-(2,4-DICHLOROPHENYL)ACRYLATE] | 28% | 6% | 67% | 87% | 27% | 23% |
| C=CCc1ccc(OC(=O)/C=C/c2ccc(Cl)cc2)c(OC)c1 [4-ALLYL-2-METHOXYPHENYL 3-(4-CHLOROPHENYL)ACRYLATE] | 38% | 49% | 89% | 89% | 14% | 8% |
| C=CCc1ccc(OC(=O)/C=C/c2ccc(C(C)C)cc2)c(OC)c1 [4-ALLYL-2-METHOXYPHENYL 3-(4-ISOPROPYLPHENYL)ACRYLATE] | 40% | 0% | 62% | 86% | 8% | 8% |
| CCOC(=O)/C=C/c1ccc(Cl)cc1Cl [ETHYL 3-(2,4-DICHLOROPHENYL)ACRYLATE] | 54% | 29% | 76% | 93% | 32% | 19% |
| CCOC(=O)/C=C/c1ccc(Cl)cc1 [ETHYL 3-(4-CHLOROPHENYL)ACRYLATE] | 43% | 47% | 99% | 97% | 19% | 8% |
| CCOC(=O)/C=C/c1ccc(C(C)C)cc1 [ETHYL 3-(4-ISOPROPYLPHENYL)ACRYLATE] | 44% | 0% | 92% | 78% | 24% | 14% |
| CCOC(=O)/C=C/c1ccccc1 [ETHYL CINNAMATE] | 26% | 0% | 57% | 63% | 36% | 14% |
| CC(C)OC(=O)/C=C/c1ccc(Cl)cc1Cl [ISOPROPYL 3-(2,4-DICHLOROPHENYL)ACRYLATE] | 42% | 54% | 71% | 93% | 50% | 20% |
| CC(C)OC(=O)/C=C/c1ccc(Cl)cc1 [ISOPROPYL 3-(4-CHLOROPHENYL)ACRYLATE] | 18% | 0% | 86% | 99% | 34% | 7% |

| SMILES | inhibition of growth at 100 ppm [1] | inhibition of growth at 100 ppm [2] | inhibition of growth at 100 ppm [3] | inhibition of growth at 100 ppm [4] | inhibition of growth at 10 ppm [5] | inhibition of growth at 10 ppm [6] |
| --- | --- | --- | --- | --- | --- | --- |
| CC(C)OC(=O)/C=C/c1ccc(C(C)C)cc1 [ISOPROPYL 3-(4-ISOPROPYLPHENYL)ACRYLATE] | 18% | 0% | 70% | 92% | 42% | 21% |
| CC(C)OC(=O)/C=C/c1ccccc1 [ISOPROPYL CINNAMATE] | 2% | 2% | 82% | 86% | 41% | 5% |
| COC(=O)/C=C/c1ccc(Cl)cc1Cl [METHYL 3-(2,4-DICHLOROPHENYL)ACRYLATE] | 66% | 84% | 68% | 75% | 43% | 39% |
| COC(=O)/C=C/c1ccc(Cl)cc1 [METHYL 3-(4-CHLOROPHENYL)ACRYLATE] | 84% | 93% | 99% | 94% | 52% | 19% |
| CCCCNC(=O)/C=C/c1ccc(Cl)cc1 [N-BUTYL-3-(4-CHLOROPHENYL)ACRYLAMIDE] | 44% | 62% | 80% | 93% | 58% | 45% |
| CCCCNC(=O)/C=C/c1ccc(C(C)C)cc1 [N-BUTYL-3-(4-ISOPROPYLPHENYL)ACRYLAMIDE] | 41% | 51% | 90% | 92% | 28% | 37% |
| CCCCNC(=O)/C=C/c1ccccc1 [N-BUTYLCINNAMAMIDE] | 50% | 71% | 84% | 94% | 45% | 33% |
| CCCCCCNC(=O)/C=C/c1ccccc1 [N-HEXYLCINNAMAMIDE] | 55% | 82% | 87% | 91% | 32% | 14% |
| CC(C)CNC(=O)/C=C/c1ccc(C(C)C)cc1 [N-ISOBUTYL-3-(4-ISOPROPYLPHENYL)ACRYLAMIDE] | 34% | 45% | 58% | 42% | 37% | 42% |
| CC(C)CNC(=O)/C=C/c1ccccc1 [N-ISOBUTYLCINNAMAMIDE] | 34% | 78% | 74% | 82% | 29% | 23% |
| CC(C)NC(=O)/C=C/c1ccc(C(C)C)cc1 [N-ISOPROPYL-3-(4-ISOPROPYLPHENYL)ACRYLAMIDE] | 50% | 62% | 62% | 80% | 40% | 40% |
| CC(C)NC(=O)/C=C/c1ccccc1 [N-ISOPROPYLCINNAMAMIDE] | 39% | 76% | 47% | 96% | 17% | 0% |
| Cc1cccc(NC(=O)/C=C/c2ccccc2)c1 [N-M-TOLYLCINNAMAMIDE] | 13% | 59% | 85% | 83% | 34% | 52% |
| CCCNC(=O)/C=C/c1ccccc1 [N-PROPYLCINNAMAMIDE] | 15% | 63% | 54% | 89% | 26% | 17% |
| CCC(C)NC(=O)/C=C/c1ccc(Cl)cc1 (stereo unspecified) [N-SEC-BUTYL-3-(4-CHLOROPHENYL)ACRYLAMIDE] | 40% | 61% | 43% | 88% | 44% | 41% |
